Measured values as given in ChEMBL document CHEMBL1144037, “Structural requirements for the stability of novel cephalosporins to AmpC beta-lactamase based on 3D-structure” (2008).
≈ marks a conversion by molar mass, not a printed value.

Experiments:
Type in all cases: functional
Pseudomonas aeruginosa [1] = test: Antibacterial activity against Pseudomonas aeruginosa PAO1 after 18 hrs by agar dilution method; conditions: PAO1, 18 h
Pseudomonas aeruginosa [2] = test: Antibacterial activity against Pseudomonas aeruginosa PAO1 ampD-deffective mutant after 18 hrs by agar dilution method; conditions: PAO1, 18 h
Pseudomonas aeruginosa [3] = test: Antibacterial activity against Pseudomonas aeruginosa FP1380 after 18 hrs by agar dilution method; conditions: FP1380, 18 h

CCCc1c[n+](CC2=C(C(=O)[O-])N3C(=O)[C@@H](NC(=O)/C(=N\OC(C)(C)C(=O)O)c4nsc(N)n4)[C@H]3SC2)n(C)c1N
MIC (Pseudomonas aeruginosa [1]): 2 µg/mL (≈ 3.29 µM) | MIC (Pseudomonas aeruginosa [2]): 1 µg/mL (≈ 1.65 µM)

Cn1c(N)c(CCCCCN)c[n+]1CC1=C(C(=O)[O-])N2C(=O)[C@@H](NC(=O)/C(=N\OC(C)(C)C(=O)O)c3nsc(N)n3)[C@H]2SC1
MIC (Pseudomonas aeruginosa [1]): 2 µg/mL (≈ 3.07 µM) | MIC (Pseudomonas aeruginosa [2]): 1 µg/mL (≈ 1.54 µM)

Cn1c(N)c(N)c[n+]1CC1=C(C(=O)[O-])N2C(=O)[C@@H](NC(=O)/C(=N\OC(C)(C)C(=O)O)c3nsc(N)n3)[C@H]2SC1
MIC (Pseudomonas aeruginosa [1]): 4 µg/mL (≈ 6.89 µM) | MIC (Pseudomonas aeruginosa [2]): 0.5 µg/mL (≈ 0.861 µM)

Cn1c(N)c(CCCCN)c[n+]1CC1=C(C(=O)[O-])N2C(=O)[C@@H](NC(=O)/C(=N\OC(C)(C)C(=O)O)c3nsc(N)n3)[C@H]2SC1
MIC (Pseudomonas aeruginosa [1]): 1 µg/mL (≈ 1.57 µM) | MIC (Pseudomonas aeruginosa [2]): 0.5 µg/mL (≈ 0.785 µM)

Cn1c(CCN)cc[n+]1CC1=C(C(=O)[O-])N2C(=O)[C@@H](NC(=O)/C(=N\OC(C)(C)C(=O)O)c3nsc(N)n3)[C@H]2SC1.O=S(=O)(O)O
MIC (Pseudomonas aeruginosa [1]): 1 µg/mL | MIC (Pseudomonas aeruginosa [2]): 0.5 µg/mL

Cn1c(N)c(CN)c[n+]1CC1=C(C(=O)[O-])N2C(=O)[C@@H](NC(=O)/C(=N\OC(C)(C)C(=O)O)c3nsc(N)n3)[C@H]2SC1
MIC (Pseudomonas aeruginosa [1]): 4 µg/mL (≈ 6.73 µM) | MIC (Pseudomonas aeruginosa [2]): 0.5 µg/mL (≈ 0.841 µM)

CC(C)(O/N=C(\C(=O)N[C@@H]1C(=O)N2C(C(=O)[O-])=C(C[n+]3ccc(N)n3CCO)CS[C@H]12)c1nsc(N)n1)C(=O)O.Cl
MIC (Pseudomonas aeruginosa [1]): 0.5 µg/mL | MIC (Pseudomonas aeruginosa [3]): 16 µg/mL | MIC (Pseudomonas aeruginosa [2]): 4 µg/mL

CC(C)(O/N=C(\C(=O)N[C@@H]1C(=O)N2C(C(=O)[O-])=C(C[n+]3ccccc3)CS[C@H]12)c1csc(N)n1)C(=O)O [CEFTAZIDIME]
MIC (Pseudomonas aeruginosa [3]): 128 µg/mL (≈ 234 µM)
